Several values for one entry are separate records, joined by “and”; a condition that tells them apart may be missing. Equal values may be shown once.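 Following 48 hours of exposure in 96-well plates, responses at five concentrations were used to interpolate endpoints linearly. At the GI50, growth is halved. TGI: total growth inhibition.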
Legend:
Experiment in all cases: growth of human tumour cells (NCI), 48 h
CAKI-1 renal = system: CAKI-1 renal
NCI-H522 lung = system: NCI-H522 lung
OVCAR-3 ovarian = system: OVCAR-3 ovarian
SNB-75 CNS = system: SNB-75 CNS
MCF7 breast = system: MCF7 breast
OVCAR-8 ovarian = system: OVCAR-8 ovarian
U251 CNS = system: U251 CNS
A549 NSCLC = system: A549 NSCLC
MDA-MB-435 = system: MDA-MB-435
SK-MEL-28 melanoma = system: SK-MEL-28 melanoma
RPMI-8226 leukemia = system: RPMI-8226 leukemia
HT29 colon = system: HT29 colon
EKVX NSCLC = system: EKVX NSCLC
ACHN renal = system: ACHN renal
MOLT-4 leukemia = system: MOLT-4 leukemia
IGROV1 ovarian = system: IGROV1 ovarian
NCI-H226 lung = system: NCI-H226 lung
SF-268 CNS = system: SF-268 CNS
RXF 393 renal = system: RXF 393 renal
T-47D breast = system: T-47D breast
OVCAR-5 ovarian = system: OVCAR-5 ovarian
HCT-116 colon = system: HCT-116 colon
PC-3 prostate = system: PC-3 prostate
UO-31 renal = system: UO-31 renal
BT-549 breast = system: BT-549 breast
DU-145 prostate = system: DU-145 prostate
SF-295 CNS = system: SF-295 CNS
HL-60(TB) leukemia = system: HL-60(TB) leukemia
M14 melanoma = system: M14 melanoma
A498 renal = system: A498 renal
LOX IMVI melanoma = system: LOX IMVI melanoma
SF-539 CNS = system: SF-539 CNS
SK-MEL-2 melanoma = system: SK-MEL-2 melanoma
MDA-MB-468 breast = system: MDA-MB-468 breast
NCI/ADR-RES ovarian = system: NCI/ADR-RES ovarian
COLO 205 colon = system: COLO 205 colon
SW-620 colon = system: SW-620 colon
HCT-15 colon = system: HCT-15 colon
HOP-92 NSCLC = system: HOP-92 NSCLC
SNB-19 CNS = system: SNB-19 CNS
KM12 colon = system: KM12 colon
NCI-H23 lung = system: NCI-H23 lung
SK-OV-3 ovarian = system: SK-OV-3 ovarian
MALME-3M melanoma = system: MALME-3M melanoma
UACC-257 melanoma = system: UACC-257 melanoma
HS 578T breast = system: HS 578T breast
SN12C renal = system: SN12C renal
SK-MEL-5 melanoma = system: SK-MEL-5 melanoma
SR leukemia = system: SR leukemia
786-0 renal = system: 786-0 renal
TK-10 renal = system: TK-10 renal
UACC-62 melanoma = system: UACC-62 melanoma
MDA-MB-231 breast = system: MDA-MB-231 breast
NCI-H460 lung = system: NCI-H460 lung
HCC-2998 colon = system: HCC-2998 colon

## O/N=C(\CSc1nnc(-c2c[nH]c3ccccc23)n1-c1ccccc1)c1ccc(Cl)cc1
CAKI-1 renal
  GI50: 2.93 µM
  TGI: 12.4 µM
NCI-H522 lung
  GI50: 3.11 µM
  TGI: 12.5 µM
OVCAR-3 ovarian
  GI50: 4.58 µM
  TGI: 32.4 µM
SNB-75 CNS
  GI50: 1.68 µM
  TGI: 5.8 µM
MCF7 breast
  GI50: 3.63 µM
  TGI: 21.6 µM
OVCAR-8 ovarian
  GI50: 3.72 µM
  TGI: 15.8 µM
U251 CNS
  GI50: 4.73 µM
  TGI: 81.2 µM
A549 NSCLC
  GI50: 3.35 µM
  TGI: 16.8 µM
MDA-MB-435
  GI50: 1.74 µM
  TGI: 3.41 µM
SK-MEL-28 melanoma
  GI50: 4.41 µM
  TGI: > 100 µM
RPMI-8226 leukemia
  GI50: 2.38 µM
  TGI: 7.29 µM
HT29 colon
  GI50: 3.04 µM
  TGI: 11.8 µM
EKVX NSCLC
  GI50: 3.21 µM
  TGI: 19.2 µM
ACHN renal
  GI50: 3.69 µM
  TGI: 14.5 µM
MOLT-4 leukemia
  GI50: 2.16 µM
  TGI: 5.69 µM
IGROV1 ovarian
  GI50: 5.35 µM
  TGI: 19.8 µM
NCI-H226 lung
  GI50: 3.98 µM
  TGI: 17.6 µM
SF-268 CNS
  GI50: 2.11 µM
  TGI: 5.08 µM
RXF 393 renal
  GI50: 2.22 µM
  TGI: 6.29 µM
T-47D breast
  GI50: 3.6 µM
  TGI: 31.4 µM
OVCAR-5 ovarian
  GI50: 3.37 µM
  TGI: 11.4 µM
HCT-116 colon
  GI50: 2.92 µM
  TGI: 13.7 µM
PC-3 prostate
  GI50: 2.31 µM
  TGI: 7.29 µM
UO-31 renal
  GI50: 2.88 µM
  TGI: 15.7 µM
BT-549 breast
  GI50: 3.71 µM
  TGI: 11.1 µM
DU-145 prostate
  GI50: 2.59 µM
  TGI: 6.32 µM
SF-295 CNS
  GI50: 3.11 µM
  TGI: 13.4 µM
HL-60(TB) leukemia
  GI50: 2.17 µM
  TGI: 6.34 µM
M14 melanoma
  GI50: 3.16 µM
  TGI: 14.1 µM
A498 renal
  GI50: 15.4 µM
  TGI: 65.8 µM
LOX IMVI melanoma
  GI50: 1.72 µM
  TGI: 3.12 µM
SF-539 CNS
  GI50: 10.2 µM
  TGI: 29.5 µM
SK-MEL-2 melanoma
  GI50: 3.64 µM
  TGI: 17.1 µM
MDA-MB-468 breast
  GI50: 1.72 µM
  TGI: 3.47 µM
NCI/ADR-RES ovarian
  GI50: 2.95 µM
  TGI: 9.5 µM
COLO 205 colon
  GI50: 4.47 µM
  TGI: 25.9 µM
SW-620 colon
  GI50: 3.08 µM
  TGI: 16.1 µM
HCT-15 colon
  GI50: 3.2 µM
  TGI: 13.6 µM
HOP-92 NSCLC
  GI50: 3.84 µM
  TGI: 37.6 µM
SNB-19 CNS
  GI50: 6.89 µM
  TGI: 45.2 µM
KM12 colon
  GI50: 4.72 µM
  TGI: > 100 µM
NCI-H23 lung
  GI50: 6.51 µM
  TGI: > 100 µM
SK-OV-3 ovarian
  GI50: 3.38 µM
  TGI: 12.4 µM
MALME-3M melanoma
  GI50: 4.99 µM
  TGI: 27.5 µM
UACC-257 melanoma
  GI50: 4.67 µM
  TGI: 87.8 µM
HS 578T breast
  GI50: 3.09 µM
  TGI: 16.6 µM
SN12C renal
  GI50: 3.79 µM
  TGI: 16.3 µM
SK-MEL-5 melanoma
  GI50: 3.87 µM
  TGI: 19.5 µM
SR leukemia
  GI50: 4.74 µM
  TGI: > 100 µM
786-0 renal
  GI50: 7.29 µM
  TGI: > 100 µM
TK-10 renal
  GI50: 3.7 µM
  TGI: 17.7 µM
UACC-62 melanoma
  GI50: 2.62 µM
  TGI: 10.1 µM
MDA-MB-231 breast
  GI50: 1.87 µM
  TGI: 3.66 µM
NCI-H460 lung
  GI50: 3.34 µM
  TGI: 15.7 µM
HCC-2998 colon
  GI50: 4.74 µM
  TGI: 22.5 µM

## COc1cc(F)c(F)cc1C(=O)c1cnc(NC2CCN(S(C)(=O)=O)CC2)nc1N
MDA-MB-468 breast
  GI50: 3.65 µM
  TGI: 10.8 µM

## O=C1NC(=O)C(=Cc2cn(Cc3ccccc3)c3ccccc23)C(=O)N1
MDA-MB-468 breast
  GI50: 0.142 µM
  TGI: 0.39 µM

## O=C(Nc1ccc(-n2cc(-c3ccncc3)c(-c3ccc(O)c(Cl)c3)n2)cc1)c1ccc(Cl)c(C(F)(F)F)c1
MDA-MB-468 breast
  GI50: 2.59 µM
  TGI: 48.4 µM

## CCN1CCN(c2cc(C(=O)Nc3cccc(Nc4ccc5c(OC)cccc5n4)c3)cc(C(F)(F)F)c2)CC1
MDA-MB-468 breast
  GI50: 0.749 µM
  TGI: 4.05 µM

## CN1CCN(Cc2ccc(NC(=O)c3cncc(C#Cc4cnc5ccc(NC6CCOCC6)nn45)c3)cc2C(F)(F)F)CC1
MDA-MB-468 breast
  GI50: 0.0338 µM and 0.0196 µM
  TGI: 0.222 µM and 0.0672 µM

## CC(C)[P+](c1ccccc1)(c1ccccc1)c1ccccc1
MDA-MB-468 breast
  GI50: 1.12 µM
  TGI: 10.7 µM

## COc1ccc2nc(C)cc(Sc3nc4ccccc4s3)c2c1
MDA-MB-468 breast
  GI50: 2.2 µM
  TGI: 11.4 µM

## CN1CCN(CCCOc2ccc3nc(Nc4ccc(F)c(F)c4)ccc3c2)CC1
MDA-MB-468 breast
  GI50: 1.37 µM
  TGI: 4.36 µM

## O=C1OCC2=C1C(c1cccc(C(F)(F)F)c1)c1cc3c(cc1N2CCO)OCCO3 (configuration not stated)
MDA-MB-468 breast
  GI50: 1.41 µM
  TGI: > 33.3 µM

## NC1=NC(SCc2ccccc2CCl)c2ncn(Cc3ccccc3CCl)c2N1 (configuration not stated)
MDA-MB-468 breast
  GI50: 1.71 µM
  TGI: 3.72 µM

## CC(C)C[C@H](NC(=O)Cn1cccc(CNC(=O)c2ccccc2)c1=O)B(O)O
MDA-MB-468 breast
  GI50: 0.139 µM
  TGI: 0.716 µM

— PubChem BioAssay (NCI)
